SMILES | melting point [°C]
N#Cc1cccc(CBr)c1 | 94
CC(C)NNC(=O)c1ccncc1 | 150
Cc1nn(-c2ccccc2)nc1C(=O)Cl | 104 to 105
COc1ccccc1C1(C)CCc2oc3ccc(Br)cc3c2-c2oc(C)cc21 (centres undefined) | 209
CC(C)(C)C(=O)C1C(=O)c2ccccc2C1=O | 109
O=C(Nc1ccccc1)OCC1(COC(=O)Nc2ccccc2)CCCC1 | 152
CCOc1ccc(N)c([N+](=O)[O-])c1 | 110 to 114
Cc1cc2c(s1)=Nc1ccccc1NC=2N1CCN(C)CC1 | 195
ClC1=C(Cl)C2(Cl)C3C4C=CC(C4)C3C1(Cl)C2(Cl)Cl (centres undefined) | 240
C=C(C)C(=O)OCCN(C)C | -30
CC(C)(C)OC(=O)N1CCN(c2ccc(CN)cc2)CC1 | 83 to 87
CN(C)C(=O)[C@@H](O)[C@H](O)C(=O)N(C)C | 186 to 188
N#CC(N)=C(N)C#N | 178 to 179
CCOC(=O)c1c(Cl)cc(C)nc1Cl | 53 to 57
COc1ccc(-c2ccc(C(=O)O)o2)cc1 | 176 to 178
CCCCCCCCCC1CCCC1 | -29
CC12CCCC1C1CCC3CCCCC3(C)C1CC2 (centres undefined) | 50.2
CC(=O)C(C#N)(Cc1ccc([N+](=O)[O-])cc1)c1ccccc1 (centres undefined) | 82
COC(=O)C1(S(=O)(=O)c2ccc(Cl)cc2)CC1 | 116
CN(C)c1ccc(C=CC#N)cc1 | 165 to 168
CCCCC(CC)C(=O)O (centres undefined) | -59
NC1(C(=O)O)CCCC1 | 320 to 322
Cc1cccc(C)c1NC(=O)c1cnc(C(C)(C)C)cn1 | 85
CCOC(=O)CCCC(=O)OCC | -24.1
Cn1c(N)c(N=O)c(=O)[nH]c1=O | 300
O=[N+]([O-])c1ccccc1Nc1ccccc1 | 75

SMILES | melting point [°C]
CC1(C)C(C=C(Br)Br)C1C(=O)OC(C#N)c1cccc(Oc2ccccc2)c1 (centres undefined) | 100
COc1cc(C=CC(=O)O)c([N+](=O)[O-])cc1OC | 270
Cc1cc(C(=O)CCl)c(C)n1-c1ccc(F)cc1 | 80 to 82
CCOC(=O)c1cc(-c2ccco2)nn1C | 57 to 58
CC1CCC(C)(CO)C1(C)C (centres undefined) | 94
O=C1CC(C(F)(F)F)=NN1c1ccccc1 | 193
Cc1ccc(-c2csc(/C(C#N)=N\Nc3cc(Cl)ccc3Cl)n2)cc1 | 187
NS(=O)(=O)C(F)(F)F | 118
OC(c1c2ccccc2cc2ccccc12)C(F)(F)F (centres undefined) | 142
CC1(C)OC(=O)C(=Cc2ccc(-c3ccccc3[N+](=O)[O-])o2)C(=O)O1 | 153
CNCc1nn(C)c2ccccc12 | 37 to 40
COCCCN | -65
Cn1cc(-c2ccccc2)c(=O)c(-c2cccc(C(F)(F)F)c2)c1 | 154
COC(=O)C(C)N(C(=O)c1ccco1)c1c(C)cccc1C (centres undefined) | 102
NCC(O)COc1ccccc1 (centres undefined) | 146
O=CC(C=O)c1nc2ccccc2o1 | 222 to 230
CCN(CC)C(=O)C1CN2CCc3cc(OC)c(OC)cc3C2CC1OC(C)=O (centres undefined) | 131
CC1CCC(C)S1 (centres undefined) | -89
CCCCCCC(C)CCCCCC | -37.2
Clc1nc(Cl)nc(Oc2cc(Oc3nc(Cl)nc(Cl)n3)cc(Oc3nc(Cl)nc(Cl)n3)c2)n1 | 240
COC(=O)CCC(C)C1CCC2C3CCC4CC(OC(C)=O)CCC4(C)C3CC(OC(C)=O)C12C (centres undefined) | 116
Cc1cccc(NC(=O)c2nn(-c3ccccc3)nc2C)n1 | 136 to 137
O=S(=O)(Cl)c1cc(F)c(Br)cc1F | 35
O=C(Cl)c1ccc(Oc2ccccn2)cc1 | 80 to 81
O=C(O)CCSc1ccc(Br)cc1 | 111
CC12CCC3C(CCC4CC5(CCC43C)OCCO5)C1CCC2=O (centres undefined) | 153

SMILES | melting point [°C]
COC(=O)c1ccccc1SCC#N | 121 to 124
O=C1OCCOC(=O)C2CCCCC2C(=O)OCCOC(=O)C2CCCCC12 (centres undefined) | 210
CC(=O)Nc1ccc2c(c1)Cc1cc([N+](=O)[O-])ccc1-2 | 262
O=S(=O)(Cl)c1ccc(Br)s1 | 41
COc1ccccc1C1(C)CCc2oc3ccccc3c2-c2oc(C)cc21 (centres undefined) | 158
N#CCCN(CCO)c1ccc(N=Nc2ccc([N+](=O)[O-])cc2Cl)cc1 | 157
CCOC(=O)C1CCN(c2ncnc3ccsc23)CC1 | 64 to 66
O=C(Cl)c1ccc(-c2cccs2)cc1 | 113 to 115
O=C1CC(C(=O)O)CC(=O)C1=C(O)C1CC1 (centres undefined) | 144
O=S(=O)(Cl)c1ccc(F)cc1C(F)(F)F | 50
CCCCOC(=O)C(C)O (centres undefined) | -28
COc1cc(O)c2c(=O)cc(-c3ccc(O)cc3)oc2c1 | 289
Nc1cnc(N)c(Br)c1 | 117 to 122
Cc1nc(S(=O)(=O)Cl)cn1C | 91 to 94
Cc1cc(C(=O)O)cc(C)c1F | 166
Nc1ccc([N+](=O)[O-])c(Cl)c1 | 159
Cc1cc(C)c2c(c1)CC2(C)O (centres undefined) | 58
Brc1ccc(I)cn1 | 124
Cc1ccccc1F | -62
N#CCS(=O)(=O)Cc1ccc(Cl)cc1 | 179 to 182
c1ccc2[nH]ncc2c1 | 148
COc1nc(C)nc(N)n1 | 260
O=C(Oc1c(-c2ccccc2)[nH]c2cc([N+](=O)[O-])ccc12)c1ccccc1 | 229
COc1ccccc1F | -39
C=CCOC(=O)OCCOCCOC(=O)OCC=C | -4
Cc1csc2ccc(Cl)cc12 | 35

SMILES | melting point [°C]
N#CC1=C(N)Oc2c(c(C(F)(F)F)nn2-c2ccccc2)C1c1ccccc1 (centres undefined) | 191
NS(=O)(=O)c1ccc(Sc2ccc(Cl)cc2)s1 | 133 to 136
COC1=C(O)C(=O)C(C)=C(O)C1=O | 202
O=C(O)c1cc(I)ccc1Cl | 161 to 163
CC(=O)c1ccc(-c2cccc([N+](=O)[O-])c2)cc1 | 108
CCCOCC(C)O (centres undefined) | -80
CC1CCCC(C)(C)C1 (centres undefined) | -65.7
c1ccc(Cc2ccccc2)cc1 | 25.2
Cc1cc[nH]n1 | 36.5
Nc1cc(C(F)(F)F)cc(C(F)(F)F)c1Br | 35
O=[N+]([O-])c1cc([N+](=O)[O-])c(C(/C(=N/Nc2ccccc2)c2ccccc2)c2ccccc2)cc1Cl (centres undefined) | 195 to 196
BrCCc1ccccc1 | -56
O=C(O)C(Br)CBr (centres undefined) | 66.5
N#Cc1ccc(N)c(F)c1 | 89
CS(=O)(=O)c1ccc2nc(N)sc2c1 | 222 to 223
COc1cc(C(=O)c2cccc(Br)c2)c([N+](=O)[O-])cc1OC | 119
Oc1ccc(O)c(C=NCCN=Cc2cc(O)ccc2O)c1 | 125 to 127
Clc1c(Cl)c(Cl)c2c(c1Cl)OC(c1ccccc1)(c1ccccc1)O2 | 153
Cc1c([N+](=O)[O-])cc(C(=O)N2CCCCCC2)cc1[N+](=O)[O-] | 106
N=C(N)NC(N)=S | 172
C=C1C(=O)C23C(OC(C)=O)CC4C(C)(C)CCC(OC(C)=O)C4(C)C2C(OC(C)=O)CC1(O)C3OC(C)=O (centres undefined) | 278
CC(=O)c1c(-c2c(Cl)cccc2Cl)noc1C | 72 to 74
CC(=O)CCC1C(=O)N(c2ccccc2)N(c2ccccc2)C1=O | 116
CC(C)(O)c1ccc(-c2ccccc2)cc1 | 91.5
O=NN(CCCl)C(=O)NCCCl | 31
Ic1ccc(-n2cccc2)cc1 | 131

SMILES | melting point [°C]
COc1ccc2c(C)cc(=O)oc2c1 | 161
COc1cc2c(c3oc(=O)c4c(c13)CCC4=O)C1CCOC1O2 (centres undefined) | 288
N#Cc1c(F)cc(Br)cc1F | 81
FC(F)(F)c1nc2ccccc2[nH]1 | 210
CN(C)c1ccc(N=Nc2ccc(N)cc2)cc1 | 189
O=C(c1ccccc1)c1ccc(O)c(O)c1 | 144 to 148
Cc1cc(C(C)(C)C)ccc1O | 27.5
CC(C)(C)OC(=O)N[C@H](CC#N)Cc1ccccc1 | 120 to 125
CCN1C(=O)C(=Cc2coc3ccc(Cl)cc3c2=O)SC1=S | 231 to 233
Clc1ccc(Cc2c(N=Cc3ccccc3)n[nH]c2N=Cc2ccccc2)cc1 | 180 to 182
CCOC(=O)c1c(NC(=S)NCc2ccccc2)sc2c1CCN(Cc1ccccc1)C2 | 135 to 138
FC(F)(Cl)C(F)(Cl)Cl | -35
CCOC(=O)c1cc(=O)c2cc(I)ccc2o1 | 148 to 150
O=C(O)Cc1cccc(CC(=O)O)c1 | 175
CC(CC(C(N)=O)(c1ccccc1)c1ccccn1)N(C)C (centres undefined) | 156
Clc1ccc(Cl)c(-c2cc(Cl)c(Cl)c(Cl)c2)c1 | 105
COC(=O)c1ccc(Oc2cc(Cl)cc(Cl)c2)o1 | 86 to 89
CC1CNC(C(C2=NCC(C)N2)C2=NCC(C)N2)=N1 (centres undefined) | 241 to 242
CC1(C)CC(=O)C2=C(C1)OC1CCCCC21 (centres undefined) | 63 to 66
Fc1ccc(I)cc1 | -20
O=C(C=NO)Nc1ccccc1 | 175
C/C(=N\Cc1cccnc1)c1c(O)c2ccccc2n(-c2ccccc2)c1=O | 221 to 222
CC1(C)OC(=O)C(c2ccccc2)C(=O)O1 | 135 to 140
CC(=O)Nc1ccccc1C(=O)CCl | 112 to 113
CC1=NN(c2ccccc2)C(=O)C1=CC1C(=O)N(c2ccccc2)N=C1C (centres undefined) | 180 to 181

Source: a melting point compilation (Tetko et al.)
